Test results reported in US8318781B2, “G-protein-conjugated receptor agonist” (Japan Science and Technology Agency, priority 2007, dated 2012).
Where two headings read alike, the source gives them in different places.

How the values were obtained:
Assay type in all cases: cell-based
human GPR40 (hGPR40) [1] = target: T1, human GPR40 (hGPR40) (Homo sapiens, UniProt O14842); test: Determination of intracellular Ca2+ concentration (FLIPR), cell line TXGPR40; details: for agonistic activity for GPR40 (in words): cells in which GPR40 has been transgenically expressed; for [Ca^2+]/GPR40 10 μM (ratio vs. LA): relative fluorescence intensity vs LA at 10 μM
T1 construct: expressed in transfected cells; doxycycline-inducible expression vector
Procedure: (§1) (1) In this test, The cell lines TXGPR40, TXGPR120 and GPR120/Flp-in were plated onto a collagen-coated black 96-well plate in 2×10^5 cells/well. The 96-well plates containing the cells were centrifuged and treated with Doxycycline (final concentration 10 μg/mL), incubated in a CO2 incubator for 21 hours, then used for assay.
(§2) (2) The ligand used in this test includes NCP04, NCP14, NCG20, NCG21, NCG22, NCG23, NCP02, NCP03, NCP05, NCP06, NCG14, NCG17, NCG19, NCG28, NCG29, NCG30, NCG31, NCG34, NCG35, NCG37, NCG38, NCG44, NCG45, NCG46, and NCG54. Each ligand was dissolved in DMSO and adjusted to the concentration of 10 mM, then diluted with Hanks' Balanced Salt Solution (pH 7.4) containing 20 mM HEPES (referred to as FLIPR buffer hereinafter) to the final concentration of 1 to 100 μM. 1% DMSO was used as the negative control, and LA was used as the positive control.
(§3) The ligands and controls were placed in different 96-well plates from the plates for the cells.
(§4) (3) The 96-well plate containing the cells was removed from the CO2 incubator. A fluorescent dye prepared in a twofold higher concentration (Ca Assay Kit Component A diluted with FLIPR Buffer) was added in 50 μL/well, then allowed to stand in the dark at room temperature for one hour.
(§5) (4) After one hour, the 96-well plate containing the cells and the 96-well plate in which ligands and controls were prepared were set on FLIPR (Fluorometric Imaging Plate Reader) for determination.
(§6) (5) Fluorometry using FLIPR was carried out at a laser output of 1.0 W for five minutes. […] after the start of the determination, the ligand (25 μL) was added dropwise to the cell plate at a rate of 50 μL/sec. The intensity of fluorescence was automatically digitized by the application program installed in the FLIPR from the image taken by the CCD camera (with exposure time of 0.40 sec). The interval of data sampling was one second for the initial one minute after the start of operation, and six seconds for the subsequent four minutes.
(§7) (6) The maximum fluorescence intensity was obtained from the data showing the change in the fluorescence intensity over time observed in each well. The maximum fluorescence intensity was plotted against ligand concentration, and pEC50 was calculated. The ratio of the fluorescence intensity for each ligand to LA at 10 μM was calculated as the relative intensity of each ligand.

human GPR40 (hGPR40) [2] = target: T1, human GPR40 (hGPR40); test: ERK assay, screening for GPR40 ligands in cell line TXGPR40; details: TXGPR40 cells; for ERK activation for GPR40 (in words): FIGS. 1-4; for ERK/GPR40 10 μM: ligand 10 μM; for ERK/GPR40 10 μM / ERK/GPR40 100 μM: class relative to LA; for ERK/GPR40 100 μM: ligand 100 μM
Procedure: (§8) This Test 1 was carried out by using the following materials and methods.
(§9) (1) In this test, the cell lines TXGPR40 and TXGPR120 were plated in 35-mm dishes in 5×10^5 cells/per dish.
(§10) Each ligand was dissolved in DMSO, diluted tenfold with the medium to make the total amount of 100 μl. DMSO was used as the negative control, and PMA (phorbol-12-myristate-13-acetate) was used as the positive control.
(§11) (3) The medium was removed from the dish of the cell to reduce the total amount of liquid to 0.9 ml.
(§12) (4) The ligand solution was added dropwise to the cell solution, and dispersed by gently shaking the dish, and allowed to react at room temperature.
(§13) (5) After 5 minutes of reaction, the medium was discarded, and the remaining medium on the dish was removed on ice using an aspirator.
(§14) (6) 150 μl of Lysis buffer (50 mM HEPES (pH 7.0), 150 mM NaCl, 10% glycerol, 1% NonidetP-40, 2 mM MgCl2, 1 mM EDTA, 100 mM NaF, 10 mM sodium phosphate, 1 mM Na3VO4, 20 mM β-glycerophosphate, and Proteinase inhibitor) were added, then the cells were collected using a cell scraper.
(§15) (1) The crude enzyme solution mixed with SDS Sample Buffer was subjected to ultrasonication with a sonifier, then incubated at 90° C. for five minutes.
(§16) (2) The mixture was vortexed and centrifuged at 15,000 rpm for five minutes at 4° C.
(§17) (3) The supernatant of the centrifuged sample was applied to two 7.5% acrylamide gel slabs placed in an electrophoresis tank filled with 1×SDS-PAGE Running Buffer (25 mM Tris, 0.2 M Glycin, and 1% SDS). Electrophoresis was carried out under a constant current of 40 mA for about 80 to 90 minutes.
(§18) (1) A PVDF membrane cut in the same size as the gel slab was immersed in methanol for about 15 seconds and then shaken in Transfer Buffer C solution (25 mM Tris, 0.02% SDS, 2% methanol and 40 mM 6-aminohexanoic acid) at room temperature to swell for 15 minutes. Filter paper for blotting was cut into a 10-cm square.
(§19) (2) On the blotting apparatus were placed sequentially two pieces of filter paper immersed in A solution (0.3 M Tris, 0.02% SDS and 2% methanol), two pieces of filter paper immersed in B solution (25 mM Tris, 0.02% SDS and 2% methanol), and the membrane thereon. The gel slab after electrophoresis, and finally two pieces of filter paper immersed in C solution was placed thereon, and the apparatus was closed.
(§20) (3) The protein was transferred to the membrane at 15 V for 30 minutes.
(§21) (1) The following procedure was all carried out at room temperature. After the protein transfer, the membrane was placed into a vial containing 1×TTBS (0.2 M Tris, 1.5 M NaCl, 0.2% Tween 20) and washed for 15 minutes.
(§22) (2) TTBS was discarded, and about 10 ml of Block Ace was added and blocked on a shaker for one hour.
(§23) (1) The primary antibodies (p44/42 MAP Kinase Antibody and Phospho-p44/42 MAP Kinase Antibody) were each diluted 1000-fold with TTBS.
(§24) (2) After blocking, the Block Ace solution was removed, the solution of the primary antibody was added and allowed to react on the shaker for two hours.
(§25) (1) The secondary antibody (Anti-rabbit Ig, Horseradish Peroxidase linked F(ab′)2 fragments) was diluted 5000-fold with TTBS.
(§26) (2) The primary antibody solution was removed and the membrane was washed three times on the shaker in TTBS for five to ten minutes each.
(§27) (3) TTBS was removed and the solution of secondary antibody was added and left for 1 hour on the shaker.
(§28) (1) 2 ml each of Detection Reagent 1 and Detection Reagent 2 from ECL kit were mixed together on ice.
(§29) (2) The solution of secondary antibody was removed from the membrane reacted with the secondary antibody and then washed three times on the shaker in TTBS for five minutes each.
(§30) (3) The liquid was thoroughly removed from the membrane, which was then placed in a plastic bag, and 2 ml of the Detection Reagent mixture was added per each membrane.
(§31) (4) The membrane was kept in contact with a film in the cassette for one to five minutes, and the film was developed using an automatic developing machine.

human GPR120 (hGPR120) [3] = target: T2, human GPR120 (hGPR120) (Homo sapiens, UniProt Q5NUL3); test: Determination of intracellular Ca2+ concentration (FLIPR), cell line GPR120/Flp-in; details: for [Ca^2+]/GPR120/Flp-In 10 μM (ratio vs. LA): relative fluorescence intensity vs LA at 10 μM
T2 construct: expressed in transfected cells; doxycycline-inducible expression vector
T2 sequence (Q5NUL3 1-361): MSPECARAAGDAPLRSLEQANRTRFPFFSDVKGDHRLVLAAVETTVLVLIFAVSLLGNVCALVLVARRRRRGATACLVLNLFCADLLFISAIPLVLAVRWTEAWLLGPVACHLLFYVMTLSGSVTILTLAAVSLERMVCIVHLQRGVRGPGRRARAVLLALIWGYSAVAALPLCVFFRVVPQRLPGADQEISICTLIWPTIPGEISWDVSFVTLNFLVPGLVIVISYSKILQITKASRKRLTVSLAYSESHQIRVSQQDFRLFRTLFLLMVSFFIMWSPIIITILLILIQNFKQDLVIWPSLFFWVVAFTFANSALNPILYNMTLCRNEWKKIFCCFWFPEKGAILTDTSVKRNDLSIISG
Procedure: as §1, §2, §3, §4, §5, §6, §7

human GPR120 (hGPR120) [4] = target: T2, human GPR120 (hGPR120); test: Determination of intracellular Ca2+ concentration (FLIPR), cell line TXGPR120; details: for agonistic activity for hGPR120 (in words): cells in which GPR120 has been transgenically expressed; for [Ca^2+]/GPR120 10 μM (ratio vs. LA): relative fluorescence intensity vs LA at 10 μM, TXGPR120 cells
Procedure: as §1, §2, §3, §4, §5, §6, §7

human GPR120 (hGPR120) [5] = target: T2, human GPR120 (hGPR120); test: ERK assay, screening for GPR120 ligands in cell line TXGPR120;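 as to ERK/GPR120 10 μM: signals normalized between DMSO and PMA controls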; details: TXGPR120 cells; for ERK activation for GPR120 (in words): FIGS. 5-8; for ERK/GPR120 10 μM: ligand 10 μM; for ERK/GPR120 10 μM / ERK/GPR120 100 μM: class relative to LA; for ERK/GPR120 100 μM: ligand 100 μM
Procedure: as §8, §9, §10, §11, §12, §13, §14, §15, §16, §17, §18, §19, §20, §21, §22, §23, §24, §25, §26, §27, §28, §29, §30, §31

T1 sequence (O14842 whole entry): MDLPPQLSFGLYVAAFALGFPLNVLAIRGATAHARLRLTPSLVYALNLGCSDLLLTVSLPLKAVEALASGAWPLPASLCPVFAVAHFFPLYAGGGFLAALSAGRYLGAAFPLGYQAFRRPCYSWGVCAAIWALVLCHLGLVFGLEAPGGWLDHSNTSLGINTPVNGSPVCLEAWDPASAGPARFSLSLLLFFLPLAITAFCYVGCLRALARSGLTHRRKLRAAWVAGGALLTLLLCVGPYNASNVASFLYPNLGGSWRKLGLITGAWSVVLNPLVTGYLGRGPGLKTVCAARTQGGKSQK

Row | EC50 (human GPR40 (hGPR40) [1]) [µM] | agonistic activity for GPR40 (in words) (human GPR40 (hGPR40) [1]) | [Ca^2+]/GPR40 10 μM (ratio vs. LA) (human GPR40 (hGPR40) [1]; TXGPR40 cells) | ERK activation for GPR40 (in words) (human GPR40 (hGPR40) [2]) | ERK/GPR40 10 μM (human GPR40 (hGPR40) [2]) | ERK/GPR40 100 μM (human GPR40 (hGPR40) [2]) | EC50 (human GPR120 (hGPR120) [3]) [µM] | [Ca^2+]/GPR120/Flp-In 10 μM (ratio vs. LA) (human GPR120 (hGPR120) [3]; GPR120/Flp-in cells) | EC50 (human GPR120 (hGPR120) [4]) [µM] | agonistic activity for hGPR120 (in words) (human GPR120 (hGPR120) [4]) | [Ca^2+]/GPR120 10 μM (ratio vs. LA) (human GPR120 (hGPR120) [4]) | ERK activation for GPR120 (in words) (human GPR120 (hGPR120) [5]) | ERK/GPR120 10 μM (human GPR120 (hGPR120) [5]) | ERK/GPR120 100 μM (human GPR120 (hGPR120) [5]) | EC50 (human GPR40 (hGPR40) [1]; TXGPR40 cells, maximum fluorescence intensity vs ligand concentration, read-out: [Ca^2+]/GPR40 pEC50 (converted)) [µM] | EC50 (human GPR120 (hGPR120) [3]; GPR120/Flp-in cells, maximum fluorescence intensity vs ligand concentration, read-out: [Ca^2+]/GPR120/Flp-In pEC50 (converted)) [µM] | SMILES
1 | 7.76 | showed a specific reactivity | 0.68 | strongly activated ERK | +++ (+++ denotes a higher value than LA) | +++ (+++ denotes a higher value than LA) | 4.57 | 1.00 | 16.2 | exhibit a similar effect | 0.61 | strongly activate ERK | +++ (+++ denotes a higher value than LA) | +++ (+++ denotes a higher value than LA) |  |  | O=C(O)CCCc1ccc(OCCN(c2ccccc2)c2cc(Cl)ccn2)cc1 [NCG35]
2 |  | showed a specific reactivity | 2.15 |  | +++ (+++ denotes a higher value than LA) | +++ (+++ denotes a higher value than LA) |  | 0.33 |  | exhibit a similar effect | 0.00 |  | + (+ denotes 0 to 100% of LA) | +++ (+++ denotes a higher value than LA) | 2.57 | 18.2 | CCCCN(CCOc1ccc(CCC(=O)O)cc1)c1ccccn1 [NCP04]
3 | 20.9 | showed a specific reactivity | 0.21 | strongly activated ERK | ++ (++ denotes 50 to 100% of LA) | +++ (+++ denotes a higher value than LA) | 4.27 | 0.88 | 12 | exhibit a similar effect | 0.85 | strongly activate ERK | +++ (+++ denotes a higher value than LA) | +++ (+++ denotes a higher value than LA) |  |  | O=C(O)CCCc1ccc(OCCN(c2ccccc2)c2ccccc2)cc1 [NCG29]
